Data set [1] concerns bovine heart PDE. Kind of data set: bovine heart PDE inhibitory action (5'-AMP produced from c-AMP measured by HPLC). As to conditions: 0.4 mM c-AMP, 30 μg protein PDE, pH 7.5, 30° C., 30 minutes. In kind it is biochemical. The method, then:
40 mM Tris-HCl buffer solution (pH 7.5), 2 mM magnesium chloride, 0.4 mM c-AMP, PDE (30 μg protein, Boehringer Mannheim Co.) and TPI are combined to form a reaction mixture (1.0 ml) and the same is incubated at 30° C. for 30 minutes.

Data set [2] in a line: Solubility. The note with it: for Solubility: insoluble: hexane, benzene and petroleum ether; for Solubility: soluble: lower alcohol such as methanol, ethanol and butanol, ethyl acetate, dimethylsulfoxide, aqueous alkali. In kind it is physicochemical.
In data set [3] the test system is mice. The data set is described as follows: acute toxicity, intraperitoneal injection in mice. In kind it is in vivo. The note with it: 100 mg/kg intraperitoneally.

SMILES strings stand for the structures. In brackets after ≈: the same amount, converted by molar mass.

`COC(=O)C1=C(C)NC(C)=C(C(=O)OCCN(C)Cc2ccccc2)C1c1cccc([N+](=O)[O-])c1` (stereo not shown) [Nicardipine, nicardipine, reference compound] gave an IC50 concentration in data set [1] of 6.0 µg/mL (≈ 12.5 µM).

In data set [1], `COc1ccc(Cc2nccc3cc(OC)c(OC)cc23)cc1OC` [Papaverine, papaverine, reference compound] gave an IC50 concentration of 25 µg/mL (≈ 73.7 µM).

Take `CCCCCCCc1cc(OC(=O)c2c(CCCCCCC)cc(O)cc2O[C@@H]2O[C@H](CO)[C@@H](O)[C@H](O)[C@H]2O)cc(O)c1C(=O)O` [TPI-1]: in data set [2], the “Solubility: insoluble” value is given as “Insoluble” and the “Solubility: soluble” value is “Soluble”. Further, the IC50 concentration in data set [1] worked out at 2.8 µg/mL (≈ 4.32 µM). Further, the deaths entry in data set [3] is on record as “No deaths occurred”.

Regarding `CCCCCCCc1cc(OC(=O)c2c(CCCCCCC)cc(O)cc2O[C@@H]2O[C@H](CO)[C@H](O)[C@H](O)[C@H]2O)cc(O)c1C(=O)O` [TPI-2], in data set [2], the “Solubility: insoluble” value is given as “Insoluble” and the “Solubility: soluble” value was “Soluble”. The molecule also displayed an IC50 concentration in data set [1] of 5.4 µg/mL (≈ 8.32 µM).

`CCCCCCCc1cc(OC(=O)c2c(CCCCCCC)cc(O)cc2O[C@@H]2O[C@H](COC(C)=O)[C@@H](O)[C@H](O)[C@H]2O)cc(O)c1C(=O)O` [TPI-3]: in data set [2], the “Solubility: insoluble” value is recorded as “Insoluble” and the “Solubility: soluble” value is “Soluble”. The IC50 concentration in data set [1] came to 2.8 µg/mL (≈ 4.05 µM).

For `CCCCCCCc1cc(OC(=O)c2c(CCCCCCC)cc(O)cc2O[C@@H]2O[C@H](COC(C)=O)[C@H](O)[C@H](O)[C@H]2O)cc(O)c1C(=O)O` [TPI-4], in data set [2], the “Solubility: insoluble” value is on record as “Insoluble” and the “Solubility: soluble” value was “Soluble”. Besides, the IC50 concentration in data set [1] amounted to 3.5 µg/mL (≈ 5.07 µM).

Regarding `CCCCCCCc1cc(OC(=O)c2c(O)cc(O)cc2CCCCCCC)cc(O)c1C(=O)O` [TPI-5], the “Solubility: insoluble” value in data set [2] is recorded as “Insoluble”. For the same molecule, the “Solubility: soluble” value in data set [2] (chloroform) is recorded as “Soluble”. For the same molecule, the IC50 concentration in data set [1] came to 2.3 µg/mL (≈ 4.73 µM).

Turning to `Cn1c(=O)c2[nH]cnc2n(C)c1=O` [Teophyllin, theophyllin, reference compound], the IC50 concentration in data set [1] turned out to be 470 µg/mL (≈ 2610 µM).

Source of the values: patent US4801697A, “Physiologically active substance TPI and production thereof” (Toyo Jozo Kabushiki Kaisha, priority 1985, dated 1989).
